Laboratory results reported in patent US20240165018A1, “HYDROGEL IMPLANTS FOR LOWERING INTRAOCULAR PRESSURE” (OCULAR THERAPEUTIX, INC., priority 2019, published 2024).
Read-outs that look alike come from different tables or passages of the source.

Experiments:
[1] = tested on: subjects with primary open-angle glaucoma or ocular hypertension; test: IOP in subjects with primary open-angle glaucoma or ocular hypertension; format: in vivo, human; conditions: patients
From the text: Patient population was controlled ocular hypertension or primary open-angle glaucoma; open, normal anterior chamber angles on gonioscopy. Primary outcomes were as follows. Diurnal IOP (8 AM, 10 AM, 4 PM) at Baseline. Day 14. Day 42. Day 85, Month 4 and Month 6. Intraocular pressure at 8 AM at Day 1. Day 3. Day 7 and Day 28. Safety evaluations, including adverse event reporting, ocular comfort, global tolerance, BCVA, endothelial cell counts, and pachymetry.

[2] = tested on: lasered hypertensive cynomolgus monkeys; conditions: cited from earlier work
[3] = tested on: glaucomatous beagles; test: Pupil diameter changes in glaucomatous beagles after travoprost instillations; format: in vivo
From the text: (§1) A pharmacodynamic study performed in twelve glaucomatous beagles evaluated the changes in intraocular pressure (IOP) and pupil diameter (PD) after instillations of 0.033, 0.0033, 0.001, 0.00033, and 0.0001% travoprost in multiple single-dose studies.

[4] = tested on: glaucomatous beagles; test: IOP changes in glaucomatous beagles after travoprost instillations; format: in vivo
From the text: as §1

SMILES: CC(C)OC(=O)CCC/C=C\C[C@@H]1[C@@H](/C=C/[C@@H](O)COc2cccc(C(F)(F)F)c2)[C@H](O)C[C@@H]1O [travoprost]
- onset of decrease in mean IOP following administration [1]: as early as two days
- IOP lowering ([2]; continued twice a day dosing at 0.1 μg, after doses 4 and 5): significant lowering of IOP
- IOP lowering ([2]; single dose of 0.1 μg): did not significantly lower IOP
- IOP reduction ([2]; single dose of 0.3 μg): 19-26%
- PD changes ([3]; 0.0001% concentration): still significant
- pupil constriction maintained for 24 hours ([3]; all dosage strengths): no dosage strength maintained pupil constriction for 24 hours
- effect on pupil diameter (PD) ([3]; concentrations of 0.00033, 0.001, and 0.0033%): significantly lowered
- effect on IOP ([4]; 0.0001% concentration): limited IOP changes
- effect on IOP ([4]; concentrations of 0.00033, 0.001, and 0.0033%, single-dose instillation): significantly lowered
- dosage strength that maintained IOP reduction for 24 hours ([4]; dog, in vivo): ≥ 0.001%
